This is an account of results in US10253039B2, “Inhibitors of bacterial DNA gyrase with efficacy against gram-negative bacteria” (priority 2014, dated 2019).

Converted amounts (≈) assume the structure as drawn.

One may read the MIC as the lowest concentration found to suppress growth.

Holding throughout (type): cell-based
Assay [1] has as its system E. coli BW25113. The assay is described as follows: MIC, microdilution in 96-well plates. Particulars: Escherichia coli, BW25113, E. coli BW25113; read-out: MIC. In outline:
(§1)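 Using LB medium and a 1:10000 starting inoculum, compounds were diluted stepwise by half in triplicate, DMSO serving as vehicle control. Shaking incubation ran 16-18 hours at 37° C. before wells were visually checked for turbidity to assign MIC.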

Assay [2] relates to Edwardsiella tarda. In words: MIC, microdilution in 96-well plates. In outline: as §1
(In general: Broth dilution looks for growth in wells or tubes with falling amounts of substance.)

Assay [3] relates to Shigella flexneri. In words: MIC, 20-strain panel. In outline: as §1
Assay [4] deals with Streptococcus agalactiae. The assay is described as follows: MIC, 20-strain panel. In outline:
as §1

The test system of assay [5] is Salmonella enterica subsp. enterica typhimurium. The assay is described as follows: MIC, 20-strain panel. Particulars: Salmonella enterica subsp. enterica Typhimurium. In short, it runs like this: as §1
Assay [6] has as its system Klebsiella pneumoniae subsp. pneumoniae. In words: MIC, 20-strain panel. Particulars: Klebsiella pneumoniae subsp. pneumoniae. In outline: as §1
The subject of assay [7] is Streptococcus pyogenes. In words: MIC, 20-strain panel. In short, it runs like this:
as §1

Assay [8] relates to E. coli MG1655. The assay is described as follows: MIC, 20-strain panel. Particulars: Escherichia coli, MG1655, E. coli MG1655; read-out: MIC. In short, it runs like this: as §1
For assay [9], the system named is E. coli JW5503 (deltolC). In words: MIC, 20-strain panel. Particulars: Escherichia coli, E. coli JW5503 (deltolC). In outline:
as §1

Assay [10] concerns Staphylococcus epidermidis. In words: MIC, 20-strain panel. In outline:
as §1

Assay [11] concerns Staphylococcus saprophyticus subsp. saprophyticus. In words: MIC, 20-strain panel. In outline:
as §1

Assay [12] deals with Staphylococcus aureus subsp. aureus. In words: MIC, 20-strain panel. Particulars: Staphylococcus aureus subsp. aureus, read-out: MIC. In outline:
as §1

Take `CS(=O)(=O)c1ccc(Cl)c(S(=O)(=O)N[C@@H]2CCN(Cc3ccc(OC4CC4)cc3)C2)c1` [Compound 151]: the MIC in [1], in [2], in [3], in [4], in assay [5] and in [6] was > 8 µg/mL in each case. The minimal inhibitory concentration (MIC) in assay [7] was > 8 µg/mL; in [8], > 8 µg/mL; in assay [9], ~8 µg/mL (≈ 16.5 µM); in [10] it was > 8 µg/mL; in [11], > 8 µg/mL; in assay [12] it was > 8 µg/mL.

In the case of `O=S(=O)(N[C@@H]1CCN(Cc2ccc(OC3CC3)cc2)C1)c1cc(F)cc(C(F)(F)F)c1` [Compound 152], the minimum inhibitory concentration (MIC) in assay [1], in [2], in [3], in assay [4], in [5] and in assay [6] was > 8 µg/mL throughout. The minimal inhibitory concentration (MIC) was > 8 µg/mL in assay [7]; > 8 µg/mL in [8]; 8 µg/mL (≈ 17.4 µM) in [9]; > 8 µg/mL in [10]; > 8 µg/mL in assay [11]; > 8 µg/mL in [12].

In the case of `Cc1ccncc1S(=O)(=O)N[C@@H]1CCN(Cc2ccc(OC3CC3)cc2)C1` [Compound 153], the MIC in [1], in [2], in assay [3], in assay [4], in assay [5] and in assay [6] was > 8 µg/mL each time. Moreover, the minimum inhibitory concentration (MIC) in assay [7] is > 8 µg/mL; in [8] it was > 8 µg/mL; in assay [9] it was 8 µg/mL (≈ 20.6 µM); in [10], > 8 µg/mL; in assay [11], > 8 µg/mL; in assay [12], > 8 µg/mL.

Consider `O=S(=O)(N[C@@H]1CCN(Cc2ccc(OC3CC3)cc2)C1)c1cncc(F)c1` [Compound 154], for which the minimum inhibitory concentration (MIC) in assay [1], in assay [2], in assay [3], in assay [4], in assay [5] and in [6] was > 8 µg/mL in each case. Further, the minimum inhibitory concentration (MIC) in assay [7], in assay [8], in [9], in assay [10], in assay [11] and in [12] was > 8 µg/mL throughout.

As for `COc1cc(CN2CC[C@@H](NS(=O)(=O)c3cccc(C#N)c3)C2)ccc1OC(C)C` [Compound 155], the minimal inhibitory concentration (MIC) in assay [1], in assay [2], in assay [3], in assay [4], in assay [5] and in assay [6] was > 8 µg/mL throughout. Besides, the minimum inhibitory concentration (MIC) in [7], in assay [8], in assay [9], in assay [10], in [11] and in assay [12] was > 8 µg/mL throughout.

As for `Cc1nn(C)c2ncc(S(=O)(=O)N[C@@H]3CCN(Cc4ccc(OC5CC5)cc4)C3)cc12` [Compound 157], the MIC in assay [1], in assay [2], in [3], in assay [4], in assay [5] and in assay [6] was > 8 µg/mL throughout. Also, the minimum inhibitory concentration (MIC) in [7], in [8], in assay [9], in [10], in assay [11] and in [12] was > 8 µg/mL in each case.

Regarding `O=S(=O)(N[C@@H]1CCN(Cc2ccc(OC3CC3)cc2)C1)c1cnc2ccsc2c1` [Compound 158], the MIC in assay [1], in assay [2], in assay [3], in assay [4], in [5] and in assay [6] was > 8 µg/mL each time. In addition, the minimum inhibitory concentration (MIC) in [7], in assay [8], in [9], in assay [10], in assay [11] and in [12] was > 8 µg/mL each time.

`N#Cc1ccc(S(=O)(=O)N[C@@H]2CCN(Cc3ccc(OC4CC4)cc3)C2)cn1` [Compound 159]: the MIC in [1], in [2], in assay [3], in assay [4], in assay [5] and in [6] was > 8 µg/mL in each case. Moreover, the MIC in assay [7], in [8], in assay [9], in [10], in assay [11] and in [12] was > 8 µg/mL in each case.

For the compound `N#Cc1ccc(S(=O)(=O)N[C@@H]2CCN(Cc3ccc(-c4ccccc4)cc3)C2)cn1` [Compound 160], the minimal inhibitory concentration (MIC) in [1], in assay [2], in assay [3], in [4], in assay [5] and in assay [6] was > 8 µg/mL throughout. For the same compound, the MIC in assay [7], in assay [8], in assay [9], in [10], in assay [11] and in assay [12] was > 8 µg/mL in each case.

With `Cc1ccc(S(=O)(=O)N[C@@H]2CCN(Cc3ccc(OC(C)C)cc3)C2)cc1C#N` [Compound 161], the MIC in assay [1], in assay [2], in [3], in assay [4], in [5] and in assay [6] was > 8 µg/mL in each case. Also, the MIC in assay [7], in assay [8], in assay [9], in [10], in assay [11] and in assay [12] was > 8 µg/mL in each case.

Turning to `Cc1ccc(S(=O)(=O)N[C@@H]2CCN(Cc3ccc(OC4CC4)cc3)C2)cc1C#N` [Compound 162], the MIC in assay [1], in assay [2], in [3], in [4], in assay [5] and in assay [6] was > 8 µg/mL throughout. Also, the MIC in assay [7], in [8], in [9], in [10], in [11] and in assay [12] was > 8 µg/mL in each case.

Take `O=S(=O)(N[C@@H]1CCN(Cc2ccn(-c3ccccc3)n2)C1)c1cccc(OC(F)(F)F)c1` [Compound 163]: the minimal inhibitory concentration (MIC) in [1], in [2], in [3], in assay [4], in assay [5] and in assay [6] was > 8 µg/mL in each case. The minimal inhibitory concentration (MIC) in assay [7], in assay [8], in assay [9], in assay [10], in assay [11] and in assay [12] was > 8 µg/mL throughout.

As for `CC(C)Oc1ccc(CN2CC[C@@H](NS(=O)(=O)c3cnc4ccsc4c3)C2)cc1` [Compound 164], the MIC in [1], in assay [2], in assay [3], in assay [4], in [5] and in assay [6] was > 8 µg/mL in each case. Besides, the minimum inhibitory concentration (MIC) in assay [7], in [8], in assay [9], in [10], in [11] and in assay [12] was > 8 µg/mL in each case.
